Measured values from patent publication US20230143604A1, “QW DOSING OF GIP RECEPTOR AGONIST PEPTIDE COMPOUNDS AND USES THEREOF” (TAKEDA PHARMACEUTICAL COMPANY LIMITED, priority 2020, published 2023).
Starred links: 1 amine or outer side, 2 acyl side, 3 side chain; linkers in the order of their positions; H or OH if unused. Non-standard residues stand in square brackets, D forms with d. Residues, ends and D or L forms follow the SMILES beside them. Groups on a side chain read outwards from the residue. *: point of attachment. C18 diacid = O=C(O)CCCCCCCCCCCCCCCCC(=O)*; C17 diacid = O=C(O)CCCCCCCCCCCCCCCC(=O)*; γGlu = O=C(O)[C@H](CCC(=O)[*:2])N[*:1]; NMeY = CN[C@@H](Cc1ccc(O)cc1)C(=O)O; AEEA = NCCOCCOCC(=O)O; Aib = CC(C)(N)C(=O)O

Assay: physchem
Settings: pH 7.4, aqueous buffer
How it was run: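 Solubility at pH 7.4 determined by stepwise addition of 200 mM phosphate buffer in 100 μL increments to 3 mg peptide, mixing briefly each time, until no insoluble material remained, then measured by liquid chromatography.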

Row | Structure (SMILES) | solubility
1 | CC[C@H](C)[C@H](NC(=O)[C@H](CO)NC(=O)[C@H](Cc1ccc(O)cc1)NC(=O)[C@H](CC(=O)O)NC(=O)[C@H](CO)NC(=O)[C@@H](NC(=O)[C@H](Cc1ccccc1)NC(=O)[C@@H](NC(=O)CNC(=O)[C@H](CCC(=O)O)NC(=O)C(C)(C)NC(=O)[C@H](Cc1ccc(O)cc1)NC)[C@@H](C)O)[C@@H](C)CC)C(=O)N[C@@H](C)C(=O)N[C@@H](CCCCNC(=O)COCCOCCNC(=O)COCCOCCNC(=O)CC[C@H](NC(=O)CCCCCCCCCCCCCCCCC(=O)O)C(=O)O)C(=O)N[C@@H](CC(=O)O)C(=O)N[C@@H](CCCNC(=N)N)C(=O)NC(C)(C)C(=O)N[C@@H](C)C(=O)N[C@@H](CCC(N)=O)C(=O)NC(C)(C)C(=O)N[C@@H](CC(N)=O)C(=O)N[C@@H](Cc1ccccc1)C(=O)N[C@H](C(=O)N[C@@H](CC(N)=O)C(=O)N[C@@H](Cc1c[nH]c2ccccc12)C(=O)N[C@@H](CC(C)C)C(=O)N[C@@H](CC(C)C)C(=O)N[C@@H](C)C(=O)N[C@@H](CCC(N)=O)C(=O)N[C@@H](CCCNC(=N)N)C(N)=O)C(C)C [Compound 254] (H-[NMeY][Aib]EGTFISDYSIAK([AEEA-AEEA-γGlu-C18 diacid])DR[Aib]AQ[Aib]NFVNWLLAQR-NH2) | ≥ 7200 µg/mL
2 | CC[C@H](C)[C@H](NC(=O)[C@H](CO)NC(=O)[C@H](Cc1ccc(O)cc1)NC(=O)[C@H](CC(=O)O)NC(=O)[C@H](CO)NC(=O)[C@@H](NC(=O)[C@H](Cc1ccccc1)NC(=O)[C@@H](NC(=O)CNC(=O)[C@H](CCC(=O)O)NC(=O)C(C)(C)NC(=O)[C@H](Cc1ccc(O)cc1)NC)[C@@H](C)O)[C@@H](C)CC)C(=O)N[C@@H](C)C(=O)N[C@@H](CCCCNC(=O)COCCOCCNC(=O)COCCOCCNC(=O)CC[C@H](NC(=O)CCCCCCCCCCCCCCCC(=O)O)C(=O)O)C(=O)N[C@@H](CC(=O)O)C(=O)N[C@@H](CCCNC(=N)N)C(=O)NC(C)(C)C(=O)N[C@@H](C)C(=O)N[C@@H](CCC(N)=O)C(=O)NC(C)(C)C(=O)N[C@@H](CC(N)=O)C(=O)N[C@@H](Cc1ccccc1)C(=O)N[C@H](C(=O)N[C@@H](CC(N)=O)C(=O)N[C@@H](Cc1c[nH]c2ccccc12)C(=O)N[C@@H](CC(C)C)C(=O)N[C@@H](CC(C)C)C(=O)N[C@@H](C)C(=O)N[C@@H](CCC(N)=O)C(=O)N[C@@H](CCCCN)C(=O)O)C(C)C [Compound 255] (H-[NMeY][Aib]EGTFISDYSIAK([AEEA-AEEA-γGlu-C17 diacid])DR[Aib]AQ[Aib]NFVNWLLAQK-OH; C-terminus assumed) | ≥ 10000 µg/mL
3 | CC[C@H](C)[C@H](NC(=O)[C@H](CO)NC(=O)[C@H](Cc1ccc(O)cc1)NC(=O)[C@H](CC(=O)O)NC(=O)[C@H](CO)NC(=O)[C@@H](NC(=O)[C@H](Cc1ccccc1)NC(=O)[C@@H](NC(=O)CNC(=O)[C@H](CCC(=O)O)NC(=O)C(C)(C)NC(=O)[C@H](Cc1ccc(O)cc1)NC)[C@@H](C)O)[C@@H](C)CC)C(=O)N[C@@H](C)C(=O)N[C@@H](CC(C)C)C(=O)N[C@@H](CC(=O)O)C(=O)N[C@@H](CCCNC(=N)N)C(=O)NC(C)(C)C(=O)N[C@@H](CCCCNC(=O)COCCOCCNC(=O)COCCOCCNC(=O)CC[C@H](NC(=O)CC[C@H](NC(=O)CCCCCCCCCCCCCCCC(=O)O)C(=O)O)C(=O)O)C(=O)N[C@@H](CCC(N)=O)C(=O)NC(C)(C)C(=O)N[C@@H](CC(N)=O)C(=O)N[C@@H](Cc1ccccc1)C(=O)N[C@H](C(=O)N[C@@H](CC(N)=O)C(=O)N[C@@H](Cc1c[nH]c2ccccc12)C(=O)N[C@@H](CC(C)C)C(=O)N[C@@H](CC(C)C)C(=O)N[C@@H](C)C(=O)N[C@@H](CCC(N)=O)C(=O)N[C@@H](CCCNC(=N)N)C(N)=O)C(C)C [Compound 256] (H-[NMeY][Aib]EGTFISDYSIALDR[Aib]K([AEEA-AEEA-γGlu-γGlu-C17 diacid])Q[Aib]NFVNWLLAQR-NH2) | ≥ 6000 µg/mL
4 | CC[C@H](C)[C@H](NC(=O)[C@H](CO)NC(=O)[C@H](Cc1ccc(O)cc1)NC(=O)[C@H](CC(=O)O)NC(=O)[C@H](CO)NC(=O)[C@@H](NC(=O)[C@H](Cc1ccccc1)NC(=O)[C@@H](NC(=O)CNC(=O)[C@H](CCC(=O)O)NC(=O)C(C)(C)NC(=O)[C@H](Cc1ccc(O)cc1)NC)[C@@H](C)O)[C@@H](C)CC)C(=O)N[C@@H](C)C(=O)N[C@@H](CC(C)C)C(=O)N[C@@H](CC(=O)O)C(=O)N[C@@H](CCCNC(=N)N)C(=O)NC(C)(C)C(=O)N[C@@H](Cc1c[nH]cn1)C(=O)N[C@@H](CCC(N)=O)C(=O)NC(C)(C)C(=O)N[C@@H](CCCCNC(=O)COCCOCCNC(=O)COCCOCCNC(=O)CC[C@H](NC(=O)CC[C@H](NC(=O)CCCCCCCCCCCCCCCC(=O)O)C(=O)O)C(=O)O)C(=O)N[C@@H](Cc1ccccc1)C(=O)N[C@H](C(=O)N[C@@H](CC(N)=O)C(=O)N[C@@H](Cc1c[nH]c2ccccc12)C(=O)N[C@@H](CC(C)C)C(=O)N[C@@H](CC(C)C)C(=O)N[C@@H](C)C(=O)N[C@@H](CCC(N)=O)C(=O)N[C@@H](CCCNC(=N)N)C(N)=O)C(C)C [Compound 257] (H-[NMeY][Aib]EGTFISDYSIALDR[Aib]HQ[Aib]K([AEEA-AEEA-γGlu-γGlu-C17 diacid])FVNWLLAQR-NH2) | ≥ 7500 µg/mL
5 | CC[C@H](C)[C@H](NC(=O)[C@H](CO)NC(=O)[C@H](Cc1ccc(O)cc1)NC(=O)[C@H](CC(=O)O)NC(=O)[C@H](CO)NC(=O)[C@@H](NC(=O)[C@H](Cc1ccccc1)NC(=O)[C@@H](NC(=O)CNC(=O)[C@H](CCC(=O)O)NC(=O)C(C)(C)NC(=O)[C@H](Cc1ccc(O)cc1)NC)[C@@H](C)O)[C@@H](C)CC)C(=O)N[C@@H](C)C(=O)N[C@@H](CC(C)C)C(=O)N[C@@H](CC(=O)O)C(=O)N[C@@H](CCCNC(=N)N)C(=O)NC(C)(C)C(=O)N[C@@H](Cc1c[nH]cn1)C(=O)N[C@@H](CCC(N)=O)C(=O)NC(C)(C)C(=O)N[C@@H](CC(N)=O)C(=O)N[C@@H](Cc1ccccc1)C(=O)N[C@H](C(=O)N[C@@H](CC(N)=O)C(=O)N[C@@H](Cc1c[nH]c2ccccc12)C(=O)N[C@@H](CC(C)C)C(=O)N[C@@H](CC(C)C)C(=O)N[C@@H](C)C(=O)N[C@@H](CCCCNC(=O)COCCOCCNC(=O)COCCOCCNC(=O)CC[C@H](NC(=O)CC[C@H](NC(=O)CCCCCCCCCCCCCCCC(=O)O)C(=O)O)C(=O)O)C(=O)N[C@@H](CCCNC(=N)N)C(N)=O)C(C)C [Compound 258] (H-[NMeY][Aib]EGTFISDYSIALDR[Aib]HQ[Aib]NFVNWLLAK([AEEA-AEEA-γGlu-γGlu-C17 diacid])R-NH2) | ≥ 6000 µg/mL

Same assay, conditions: pH 7.4, aqueous buffer, pH 7.4 Phosphate Buffer - Solubility, 200 mM Phosphate buffer pH 7.4

Row | Structure (SMILES) | solubility
6 | CC[C@H](C)[C@H](NC(=O)[C@H](CO)NC(=O)[C@H](Cc1ccc(O)cc1)NC(=O)[C@H](CC(=O)O)NC(=O)[C@H](CO)NC(=O)[C@@H](NC(=O)[C@H](Cc1ccccc1)NC(=O)[C@@H](NC(=O)CNC(=O)[C@H](CCC(=O)O)NC(=O)C(C)(C)NC(=O)[C@H](Cc1ccc(O)cc1)NC)[C@@H](C)O)[C@@H](C)CC)C(=O)N[C@@H](C)C(=O)N[C@@H](CC(C)C)C(=O)N[C@@H](CC(=O)O)C(=O)N[C@@H](CCCNC(=N)N)C(=O)N[C@@H](CCCCNC(=O)CNC(=O)CNC(=O)CNC(=O)CNC(=O)CNC(=O)CCCCCCCCCCCCCCCC(=O)O)C(=O)N[C@@H](Cc1c[nH]cn1)C(=O)N[C@@H](CCC(N)=O)C(=O)NC(C)(C)C(=O)N[C@@H](CC(N)=O)C(=O)N[C@@H](Cc1ccccc1)C(=O)N[C@H](C(=O)N[C@@H](CC(N)=O)C(=O)N[C@@H](Cc1c[nH]c2ccccc12)C(=O)N[C@@H](CC(C)C)C(=O)N[C@@H](CC(C)C)C(=O)N[C@@H](C)C(=O)N[C@@H](CCC(N)=O)C(=O)N[C@@H](CCCNC(=N)N)C(=O)N1CCC[C@H]1C(=O)N[C@@H](CO)C(=O)N[C@@H](CO)C(=O)NCC(=O)N[C@@H](C)C(=O)N1CCC[C@H]1C(=O)N1CCC[C@H]1C(=O)N1CCC[C@H]1C(=O)N[C@@H](CO)C(=O)O)C(C)C [Compound 259] | < 6000 µg/mL
